Measured values reported in patent US8536202B2, “Triazole-substituted anthranilamides as pesticides” (Bayer Cropscience AG, priority 2010, dated 2013).
Like-named read-outs stand apart in the source and are kept apart here.

Experiments:
[1] = system: caterpillars of the armyworm (Spodoptera frugiperda); assay: Spodoptera frugiperda test (SPODFR spray treatment); type: in vivo; settings: 168 h, after 7 days; for pest or weed control at 100 g/ha: read-out: activity in %
In short: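 Percent caterpillar mortality read 7 days after infestation (0% none killed, 100% all killed). Treatment was a spray of the acetone/DMF/emulsifier formulation, water-diluted to test concentration, onto Zea mays leaf discs, allowed to dry before larvae were added.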

[2] = log P determination by HPLC on reversed-phase columns (EEC Directive 79/831 Annex V.A8); type: physicochemical; settings: pH 2.7
In short: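 Calibration used unbranched alkan-2-ones of 3 to 16 carbons with known log P, values interpolated linearly from retention times between neighbouring standards. Acidic-range LC-MS run at pH 2.7, eluents aqueous and acetonitrile formic acid 0.1%, linear gradient 10% to 95% acetonitrile.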

[3] = system: green peach aphid (Myzus persicae); assay: Myzus test (MYZUPE spray treatment), Use Example 4; type: in vivo; settings: 144 h, 100 g/ha, after 6 days, read-out: activity in %
Experimental: Solvents: 78 parts by weight of acetone • • 1.5 parts by weight of dimethylformamide
Emulsifier: 0.5 part by weight of alkylaryl polyglycol ether
An appropriate preparation of active compound is prepared by mixing 1 part by weight of active compound with the stated amounts of solvents and emulsifier and diluting the concentrate with emulsifier-containing water to the desired concentration.
Leaf discs of Chinese cabbage (Brassica pekinensis) infested by all stages of the green peach aphid (Myzus persicae) are sprayed with a preparation of active compound at the desired concentration.
After 6 days, the activity in % is ascertained. Here, 100% means that all of the aphids have been killed; 0% means that no aphids have been killed.

[4] = system: larvae of the mustard beetle (Phaedon cochleariae); assay: Phaedon test (PHAECO spray treatment); type: in vivo; settings: 168 h, 100 g/ha, after 7 days, read-out: activity in %
In short: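 Mortality of mustard beetle larvae, expressed as percent killed (100% all, 0% none), assessed 7 days after spraying. Spray liquor made from compound in acetone plus dimethylformamide with alkylaryl polyglycol ether, diluted in emulsifier-containing water to the desired concentration.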

[5] = reversed-phase C18 HPLC column, HPLC on reversed-phase columns (C 18), EEC Directive 79/831 Annex V.A8, read-out: logP

Cc1cc(C#N)cc(C(=O)NCC2CC2)c1NC(=O)c1cc(Cn2cc(C(F)(C(F)(F)F)C(F)(F)F)nn2)nn1-c1ncccc1Cl [Example 221]
pest or weed control at 100 g/ha [1]: 100%
chromatographic logP [2, 5]: 3.52
pest or weed control at 100 g/ha [3]: 80%
pest or weed control at 100 g/ha [4]: 100%

CSC[C@H](C)NC(=O)c1cc(C#N)cc(C)c1NC(=O)c1cc(Cn2cc(C(F)(C(F)(F)F)C(F)(F)F)nn2)nn1-c1ncccc1Cl [Example 222]
pest or weed control at 100 g/ha [1]: 100%
chromatographic logP [2, 5]: 3.63
pest or weed control at 100 g/ha [3]: 100%
pest or weed control at 100 g/ha [4]: 100%

Cc1cc(C#N)cc(C(N)=O)c1NC(=O)c1cc(Cn2cc(C(F)(C(F)(F)F)C(F)(F)F)nn2)nn1-c1ncccc1Cl [Example 223]
pest or weed control at 20 g/ha [1]: 100%
chromatographic logP [2]: 2.84
pest or weed control at 100 g/ha [3]: 100%
pest or weed control at 100 g/ha [4]: 100%

Cc1cc(C#N)cc(C(=O)NC2CC2)c1NC(=O)c1cc(Cn2cc(C(F)(C(F)(F)F)C(F)(F)F)nn2)nn1-c1ncccc1Cl [Example 224]
pest or weed control at 100 g/ha [1]: 100%
chromatographic logP [2, 5]: 3.24
pest or weed control at 100 g/ha [3]: 80%
pest or weed control at 100 g/ha [4]: 100%

CNC(=O)c1cc(Cl)cc(C)c1NC(=O)c1cc(Cn2cc(C(F)(C(F)(F)F)C(F)(F)F)nn2)nn1-c1ncccc1Cl [Example 225]
pest or weed control at 20 g/ha [1]: 100%
chromatographic logP [2]: 3.36
pest or weed control at 100 g/ha [3]: 100%
pest or weed control at 100 g/ha [4]: 100%

Cc1cc(Cl)cc(C(=O)NC(C)(C)C)c1NC(=O)c1cc(Cn2cc(C(F)(C(F)(F)F)C(F)(F)F)nn2)nn1-c1ncccc1Cl [Example 228]
pest or weed control at 100 g/ha [1]: 100%
chromatographic logP [2, 5]: 4.19
pest or weed control at 100 g/ha [3]: 80%
pest or weed control at 100 g/ha [4]: 100%

CSC[C@H](C)NC(=O)c1cc(Cl)cc(C)c1NC(=O)c1cc(Cn2cc(C(F)(C(F)(F)F)C(F)(F)F)nn2)nn1-c1ncccc1Cl [Example 230]
pest or weed control at 100 g/ha [1]: 100%
chromatographic logP [2, 5]: 4.04
pest or weed control at 100 g/ha [3]: 80%
pest or weed control at 100 g/ha [4]: 100%

CSC[C@H](C)NC(=O)c1cc(I)cc(C)c1NC(=O)c1cc(Cn2cc(C(F)(C(F)(F)F)C(F)(F)F)nn2)nn1-c1ncccc1Cl [Example 238]
pest or weed control at 100 g/ha [1]: 100%
chromatographic logP [2, 5]: 4.26
pest or weed control at 100 g/ha [3]: 100%
pest or weed control at 100 g/ha [4]: 100%

CSC[C@H](C)NC(=O)c1cc(Cl)cc(Cl)c1NC(=O)c1cc(Cn2cc(C(F)(C(F)(F)F)C(F)(F)F)nn2)nn1-c1ncccc1Cl [Example 246]
pest or weed control at 100 g/ha [1]: 100%
chromatographic logP [2, 5]: 4.02
pest or weed control at 100 g/ha [3]: 80%
pest or weed control at 100 g/ha [4]: 100%

CNC(=O)c1cc(C#N)cc(C)c1NC(=O)c1cc(Cn2ncc(C(F)(C(F)(F)F)C(F)(F)F)n2)nn1-c1ncccc1Cl [Example 249]
pest or weed control at 100 g/ha [1]: 100%
chromatographic logP [2]: 3.39
pest or weed control at 100 g/ha [3]: 80%
pest or weed control at 100 g/ha [4]: 100%

CSC[C@H](C)NC(=O)c1cc(C#N)cc(C)c1NC(=O)c1cc(Cn2ncc(C(F)(C(F)(F)F)C(F)(F)F)n2)nn1-c1ncccc1Cl [Example 254]
pest or weed control at 100 g/ha [1]: 100%
chromatographic logP [2, 5]: 4.06
pest or weed control at 100 g/ha [3]: 80%
pest or weed control at 100 g/ha [4]: 100%

Cc1cc(C#N)cc(C(N)=O)c1NC(=O)c1cc(Cn2ncc(C(F)(C(F)(F)F)C(F)(F)F)n2)nn1-c1ncccc1Cl [Example 255]
pest or weed control at 100 g/ha [1]: 100%
chromatographic logP [2]: 3.19
pest or weed control at 100 g/ha [3]: 80%
pest or weed control at 100 g/ha [4]: 100%

CSC[C@H](C)NC(=O)c1cc(Cl)cc(C)c1NC(=O)c1cc(Cn2ncc(C(F)(C(F)(F)F)C(F)(F)F)n2)nn1-c1ncccc1Cl [Example 262]
pest or weed control at 100 g/ha [1]: 100%
chromatographic logP [2, 5]: 4.45
pest or weed control at 100 g/ha [3]: 80%
pest or weed control at 100 g/ha [4]: 100%

Cc1cc(I)cc(C(N)=O)c1NC(=O)c1cc(Cn2ncc(C(F)(C(F)(F)F)C(F)(F)F)n2)nn1-c1ncccc1Cl [Example 271]
pest or weed control at 20 g/ha [1]: 100%
chromatographic logP [2]: 3.7
pest or weed control at 100 g/ha [3]: 80%
pest or weed control at 100 g/ha [4]: 100%

CNC(=O)c1cc(Cl)cc(Cl)c1NC(=O)c1cc(Cn2ncc(C(F)(C(F)(F)F)C(F)(F)F)n2)nn1-c1ncccc1Cl [Example 273]
pest or weed control at 100 g/ha [1]: 100%
chromatographic logP [2]: 3.69
pest or weed control at 100 g/ha [3]: 100%
pest or weed control at 100 g/ha [4]: 100%

CNC(=O)c1cc(C#N)cc(C)c1NC(=O)c1cc(Cn2ncc(C(F)(F)F)n2)nn1-c1ccccc1Cl [Example 284]
pest or weed control at 100 g/ha [1]: 100%
chromatographic logP [2, 5]: 3.1
pest or weed control at 100 g/ha [3]: 80%
pest or weed control at 100 g/ha [4]: 100%

Cc1cc(C#N)cc(C(=O)NC(C)C)c1NC(=O)c1cc(Cn2ncc(C(F)(F)F)n2)nn1-c1ccccc1Cl [Example 286]
pest or weed control at 100 g/ha [1]: 100%
chromatographic logP [2, 5]: 3.59
pest or weed control at 100 g/ha [3]: 80%
pest or weed control at 100 g/ha [4]: 100%

CCNC(=O)c1cc(C#N)cc(C)c1NC(=O)c1cc(Cn2ncc(C(F)(F)F)n2)nn1-c1ccccc1Cl [Example 288]
pest or weed control at 100 g/ha [1]: 100%
chromatographic logP [2, 5]: 3.3
pest or weed control at 100 g/ha [3]: 100%
pest or weed control at 100 g/ha [4]: 100%

Cc1cc(C#N)cc(C(=O)NC2CC2)c1NC(=O)c1cc(Cn2ncc(C(F)(F)F)n2)nn1-c1ccccc1Cl [Example 289]
pest or weed control at 100 g/ha [1]: 100%
chromatographic logP [2, 5]: 3.3
pest or weed control at 100 g/ha [3]: 100%
pest or weed control at 100 g/ha [4]: 100%

CNC(=O)c1cc(Cl)cc(C)c1NC(=O)c1cc(Cn2cc(C(F)(F)F)nn2)nn1-c1ccccc1Cl [Example 291]
pest or weed control at 100 g/ha [1]: 100%
chromatographic logP [2, 5]: 3.08
pest or weed control at 100 g/ha [3]: 80%
pest or weed control at 100 g/ha [4]: 100%

CNC(=O)c1cc(C#N)cc(C)c1NC(=O)c1cc(Cn2cc(C(F)(F)F)nn2)nn1-c1ccccc1Cl [Example 293]
pest or weed control at 100 g/ha [1]: 100%
chromatographic logP [2, 5]: 2.63
pest or weed control at 100 g/ha [3]: 80%
pest or weed control at 100 g/ha [4]: 100%

CCNC(=O)c1cc(C#N)cc(C)c1NC(=O)c1cc(Cn2cc(C(F)(F)F)nn2)nn1-c1ccccc1Cl [Example 294]
pest or weed control at 100 g/ha [1]: 100%
chromatographic logP [2, 5]: 2.92
pest or weed control at 100 g/ha [3]: 100%
pest or weed control at 100 g/ha [4]: 100%

CNC(=O)c1cc(C#N)cc(C)c1NC(=O)c1cc(Cn2nncc2C(F)(C(F)(F)F)C(F)(F)F)nn1-c1ccccc1Cl [Example 298]
pest or weed control at 100 g/ha [1]: 100%
chromatographic logP [2, 5]: 3.46
pest or weed control at 100 g/ha [3]: 80%
pest or weed control at 100 g/ha [4]: 100%

CNC(=O)c1cc(Cl)cc(C)c1NC(=O)c1cc(Cn2cc(C(F)(F)C(F)(F)F)nn2)nn1-c1ncccc1Cl [Example 299]
pest or weed control at 100 g/ha [1]: 100%
chromatographic logP [2]: 3.02
pest or weed control at 100 g/ha [3]: 80%
pest or weed control at 100 g/ha [4]: 100%

Cc1cc(Cl)cc(C(=O)NC(C)C2CC2)c1NC(=O)c1cc(Cn2cc(C(F)(F)C(F)(F)F)nn2)nn1-c1ncccc1Cl (centres unmarked) [Example 300]
pest or weed control at 100 g/ha [1]: 100%
chromatographic logP [2]: 3.79
pest or weed control at 100 g/ha [3]: 90%
pest or weed control at 100 g/ha [4]: 100%

Cc1cc(Cl)cc(C(=O)NC2CC2)c1NC(=O)c1cc(Cn2cc(C(F)(F)C(F)(F)F)nn2)nn1-c1ncccc1Cl [Example 301]
pest or weed control at 100 g/ha [1]: 100%
chromatographic logP [2]: 3.26
pest or weed control at 100 g/ha [3]: 90%
pest or weed control at 100 g/ha [4]: 100%
